Results on one substance are retold here after patent publication US10000467B2, “Cyanine compounds” (Pierce Biotechnology, Inc., priority 2012, dated 2018).

The test system of one assay is HDAC2. The assay can be described thus: Immunofluorescence in U2OS cells, rabbit-anti-HDAC2 primary antibody. In kind it is cell-based, human. The procedure:
(§1) The inventive compounds and commercial dye were evaluated for immunofluorescence in cell based assays using the following protocol. Plates containing U2OS cells (human osteosarcoma cell line) were fixed in 4% paraformaldehyde in PBS/0.1% Triton X-100 for 15 min at room temperature. The cells were then […] with 2% BSA in PBS/0.1% Triton X-100 for 15 min at room temperature. Negative controls contain only 2% BSA/PBS-0.1% Triton-X100 blocker. Diluted primary antibodies, mouse-anti-protein disulphide isomerase (PDI) or rabbit-anti-HDAC2, diluted in 2% BSA/PBS-0.1% Triton-X100 were added to the plates and incubated for one hour at room temperature. Negative controls contain only 2% BSA/PBS-0.1% Triton-X100 blocker. The plates were washed 3×100 μl with PBS. Based on the calculated protein concentrations, the conjugates made in Example 22 were diluted to 4 μg/ml in PBS/0.1% Triton X-100 and added to the plates (50 μl/well) and incubated one hour in the dark at room temperature. After incubation, the […] antibody solution was removed from the plates, and the plates were washed 3×100 μl with PBS. One hundred μl of 0.1 μg/ml Hoechst dye in PBS was added per well. The plates were then scanned on an ArrayScan® Plate Reader for imaging and quantitation.

The test system of assay [1] is protein disulphide isomerase (PDI). Briefly: Immunofluorescence in U2OS cells, mouse-anti-PDI primary antibody. In kind it is cell-based, human. To be noted: FIGS. 17-19; GAM conjugates at 2.5×-15× molar excess. The method, then: as §1
[2] abbreviates: FIGS. 20-22, GAR conjugates purified with 200 μl of resin/mg of protein.

For Alexa Fluor 647, the Quenching entry with HDAC2 (FIGS. 14-16, GAR conjugates at 2.5×-15× molar excess) is “significant quenching at high molar excesses”; in the assay on HDAC2 (setting [2]) it was “significant quenching above 2.5× molar excess”; in assay [1] it was “significant quenching above 2.5× molar excess”. Besides, the “Fluorescence intensity (Mean Total Intensity)” value (with HDAC2 (setting [2]); in assay [1]) was “highest binding intensity at 2.5× dye molar excess” each time.
